Reference: patent US8624079B2, “Knockin mouse with a disruption in a PXR gene expressing human PXR” (ITI Scotland Limited, priority 2007, dated 2014)
Values joined by “and” are separate entries in the source; they are usually repeats but may differ in a detail not shown here. Identical values can stand only once.

Key:
[1] = system: Cyp3a11; assay: Midazolam metabolism in koCyp3a11 mice; conditions: male koCyp3a11 mice compared to male wild type mice
Description: The also inventors studied the pharmacokinetics of midazolam (MDZ; metabolisation to form 1-hydroxymidazolam) in male koCyp3a11 mice, in comparison to male wild type mice.

[2] = system: liver; assay: H&E histopathology of liver and small intestine; type: in vivo, mouse
Description: Two samples of the liver (one from the lobe, one from the median lobe) and one sample of the small intestine were taken and preserved in 4% neutral buffered formaldehyde (NBF). The preserved liver samples of all mice of all groups were trimmed, processed and embedded in paraffin. The paraffin-embedded samples were sent to Progenix, Inverkeithing, UK where they were sectioned at a nominal thickness of about 5 áem and then stained with haematoxylin and eosin (H&E). One section of each organ sample was examined by Dr. Ortwin Vogel, Consultant Pathologist, Kiel, Germany. Subsequent to his histopatholoical analysis of all H&E stained mouse livers and small intestines, Dr. Vogel reported the following finding;

[3] = system: Cyp3a11; assay: Cyp3a11 protein expression in liver microsomes of treated mice by SDS-PAGE and Western blotting; conditions: mouse, in vivo, 40 mg/kg
Protocol: (§1) Dosing solutions were prepared on the day of administration by adding corn oil to the requisite quantity of test substance and stirring to obtain a solution or fine suspension. The concentration of PCN was 10 mg/ml and Rif 2.5 mg/ml of supplied chemical, without any correction for purity. Records of preparation were retained.
The volume of vehicle and solutions of inducing agents administered was 10 ml/kg bodyweight. This route of administration was chosen for consistency with previously published work. […]
(§2) Quantification of Cyp3a11, Cyp2b10 and PXR protein in liver microsomes of all mice samples was carried out by SDS-PAGE and Western blotting. To detect murine and human PXR protein, an antibody (RF8) was employed. For the identification of Cyp3a and Cyp2b, […] were used, (CH32 and CH4, respectively).

[4] = system: Cyp3a; assay: 7-benzyloxyquinoline (BQ) activity assay in liver microsomes of treated mice; conditions: PB 80 mg/kg ip daily for 4 days
Protocol: PXR activity was determined by measuring the metabolism of a number of cytochrome P450 substrates which are metabolised to different extents by different cytochrome P450 enzymes. The following assays were performed: • 7-benzyloxyquinoline (BQ) activity was determined in liver microsomes. • Testosterone hydroxylase activity was determined in liver microsomes (LMS HPLC-006). • The specific activities of these reactions was expressed per mg protein as determined using the Lowry assay (LMS Spec-0001).

[5] = system: Cyp1a1/1a2 and Cyp1b1; assay: MROD and EROD activity in liver microsomes of treated mice; conditions: PB 80 mg/kg ip daily for 4 days
Description: EROD activity is indicative of Cyp1a1/1a2 and Cyp1b1 in the mouse, whereas MROD is a substrate for Cyp1a2. However, other isoforms may be contributing to the measured activities. The results from the two enzyme assays are in reasonably good agreement with each other (FIG. 130a-b) As the Cyp1a2 gene is constitutively expressed, this may explain the basal levels of activity observed in both activity assays.

[6] = system: Cyp2b10; assay: pentoxyresorufin-O-deethylation (PROD) and BROD activity assay in liver microsomes of treated mice; conditions: for BROD and PROD activities (Cyp2b10 / P450 induction): WT and huPXR/huCAR mice
[7] = system: liver cells; assay: BrdU incorporation in liver (hepatic cell proliferation, S-phase labelling index); type: in vivo, mouse; conditions: for % BrDu Positive Cells, % mean (of own control) / % BrDu Positive Cells, Mean / % BrDu Positive Cells (individual mouse): liver; for cell proliferation (BrdU positive cells): huPXR/huCAR or PXRKO/CARKO mice
[8] = Liver/body weight ratios (hepatomegaly); type: in vivo, mouse; conditions: PB 80 mg/kg ip daily for 4 days; for Body weight (g) - Day 5 / Liver weight / Liver/Body weight Ratio: Mean ± SD; for hepatomegaly: WT and huPXR/huCAR mice
Description: Post operation all animals had no abnormalities detected.

[9] = system: Cyp3a11 and Cyp2b10; assay: Comparative induction study in PXR/CAR humanised and knockout panel (Cyp3a11, Cyp2b10 protein, BQ and PROD activity); conditions: mice in which CAR had been knocked out; 40 mg/kg
Description: The effects of phenobarbital on Cyp3a11 and Cyp2b10 induction were compared in wild type, huPXR, koPXR, huCAR, koCAR, huPXR/huCAR, koPXR/koCAR huPXR/koCAR and koPXR/huCAR mice (see FIG. 87).

[10] = wild-type, koPXR or koCAR mice; 40 mg/kg
Protocol: For the same animals, plasma levels of alanine aminotransferase (ALT), alkaline phosphatase (ALP) and aspartate aminotransferase (AST) were also measured (see FIG. 40). […] Both compounds were administered at 40 mg/kg.
Plasma levels of alanine aminotransferase (ALT), alkaline phosphatase (ALP) and aspartate aminotransferase (AST) were also measured (see FIG. 46).

[11] = system: liver; assay: TUNEL labelling assay (hepatic in situ cell death); type: in vivo, mouse; conditions: WT, huPXR/huCAR and PXRKO/CARKO mice; PB 80 mg/kg ip daily for 4 days
Description: However, no such consistency has been observed in mice. An indirect TUNEL labelling assay was used to analyse hepatic in situ death (FIG. 128/Table 4). The present study has shown a marker variation in apoptotic indices in mouse liver. Thus, small (e.g. 50%) compound-induced decreases, upon a low background, were not readily demonstrable.

[12] = system: Cyp2b10; assay: Cyp2b10 protein expression of treated mice by SDS-PAGE and Western blotting; conditions: for Cyp2b10 protein in pooled liver microsomes (Western blot): PB 80 mg/kg ip daily for 4 days
Protocol: as §1
Control animals were administered vehicle (corn oil) daily by intraperitoneal injection. The volume of vehicle and solutions of inducing agents administered was 10 ml/kg bodyweight. This route of administration was chosen for consistency with previously published work. […]
as §2

[13] = wild type mice; rifampicin 10 mg/kg per day for 3 days before midazolam
[14] = PXRKO/CARKO mice, PB 80 mg/kg ip daily for 4 days
[15] = PXRKO/CARKO mice, PB 80 mg/kg ip daily for 4 days, listed as PB
[16] = PB 80 mg/kg ip daily for 4 days
[17] = PB 80 mg/kg ip daily for 4 days, listed as PB
[18] = WT mice, PB 80 mg/kg ip daily for 4 days
[19] = huPXR/huCAR mice, PB 80 mg/kg ip daily for 4 days

## Cc1ncc2n1-c1ccc(Cl)cc1C(c1ccccc1F)=NC2 [midazolam]
[1]
  1-hydroxymidazolam formation: significantly reduced

## CCC1(c2ccccc2)C(=O)NC(=O)NC1=O [phenobarbital, Phenobarbital]
[2]; [14]
  hepatocellular hypertrophy (H&E, microscopic): no unequivocal evidence of a hepatocellular hypertrophy
[2]; PXRKO/CARKO strain, PB 80 mg/kg/4days/IP
  pathological evidence in liver (pathologist's conclusion): Evidence of hepatocellular hyperplasia occurred
[2]; WT and huPXR/huCAR strain, PB 80 mg/kg/4days/IP
  pathological evidence in liver (pathologist's conclusion): pathological evidence of a hepatocellular hypertrophy/hyperplasia
[2]; WT, huPXR/huCAR and PXRKO/CARKO mice, PB 80 mg/kg ip daily for 4 days
  mitotic figures indicating hepatocellular proliferation (H&E): noted mainly in PB-treated WT mice
[2]; all mouse lines, PB 80 mg/kg/4days/IP
  microscopic findings in the small intestine: No microscopic findings were recorded in the small intestine
[2]; huPXR/huCAR and WT mice, PB 80 mg/kg ip daily for 4 days
  hepatocellular hypertrophy (H&E, microscopic): slight to moderate centrilobular hepatocellular hyperthrophy
[3]
  Cyp3a11 expression in liver (Western blot): significantly reduced
[4]; PXRKO/CARKO mice
  Cyp3a11 induction (BQ activity): absence of Cyp3a11 induction
[4]; WT mice
  increase in BQ activity: marginal increase
[4]; huPXR/huCAR mice
  increase in BQ activity: 5 fold
[5]; PXRKO/CARKO line
  MROD and EROD enzyme activities: no increase
[5]; WT and huPXR/huCAR mice
  MROD and EROD enzyme activities: increased
[6]; [15]
  PROD or BROD activities (Cyp2b10 / P450 induction): not altered
[6]; [16]
  BROD and PROD activities (Cyp2b10 / P450 induction): led to both hepatomegaly and P450 induction
[6]; [17]
  BROD and PROD activities (Cyp2b10 / P450 induction): marker Cyp2b10 induction was observed, at similar levels
[7]; [14]
  % BrDu Positive Cells, % mean (of own control): 144%
  % BrDu Positive Cells, Mean: 2.83%
[7]; [15]
  % BrDu Positive Cells (individual mouse): 2.16% and 1.98% and 1.82% and 2.30% and 3.77% and 5.10% and 3.71% and 1.88% and 3.06% and 2.51%
[7]; [18]
  increase of hepatocellular labelling index (S-phase): approximately 5 fold
  % BrDu Positive Cells, % mean (of own control): 531%
  % BrDu Positive Cells, Mean: 9.30%
[7]; WT mice, PB 80 mg/kg ip daily for 4 days, listed as PB
  % BrDu Positive Cells (individual mouse): 9.45% and 5.54% and 16.69% and 6.32% and 9.50% and 8.09% and 7.64% and 13.60%
[7]; [19]
  % BrDu Positive Cells, % mean (of own control): 104%
  % BrDu Positive Cells, Mean: 2.00%
[7]; huPXR/huCAR mice, PB 80 mg/kg ip daily for 4 days, listed as PB
  % BrDu Positive Cells (individual mouse): 0.37% and 0.-18% and 1.19% and 1.86% and 3.GO and 1.98% and 3.18% and 3.24% and 2.13%
[7]; [16]
  cell proliferation (BrdU positive cells): No increase in BrdU positive cells was observed
[7]; [17]
  cell proliferation (BrdU positive cells): appeared to have no effect on cell proliferation
[7]; wild-type mice, phenobarbital vs unexposed control
  hepatocellular proliferation (% BrdU-positive cells): hepatocellular proliferation only in wild-type mice
[8]; PXRKO/CARKO mice
  Body weight - Day 5 (% mean own control ± % SD): (98 ± 8) %
  Liver weight (% mean own control ± % SD): (98 ± 16) %
  Liver/Body weight Ratio (% mean own control ± % SD): (100 ± 9) %
  Body weight (g) - Day 5: 26.6 ± 2.2 g
  Liver weight: 1.42 ± 0.23 g
  Liver/Body weight Ratio: 5.3 ± 0.4
[8]
  hepatomegaly: led to both hepatomegaly and P450 induction
[8]; listed as PB
  hepatomegaly: observed
[8]; WT mice
  Body weight - Day 5 (% mean own control ± % SD): (84 ± 5) %
  Liver weight (% mean own control ± % SD): (101 ± 6) %
  Body weight (g) - Day 5: 23.2 ± 1.3 g
  Liver weight: 1.44 ± 0.09 g
  Liver/Body weight Ratio: 6.2 ± 0.2
[8]; huPXR/huCAR mice
  Body weight - Day 5 (% mean own control ± % SD): (99 ± 6) %
  Liver weight (% mean own control ± % SD): (121 ± 11) %
  Body weight (g) - Day 5: 25.4 ± 1.5 g
  Liver weight: 1.69 ± 0.16 g
  Liver/Body weight Ratio: 6.7 ± 0.6
[9]
  induction of Cyp3a11 and Cyp2b10 protein expression or activity in the BQ and PROD assays: Little or no induction
[10]
  hepatotoxicity (liver/body weight ratio, plasma ALT, ALP, AST): No hepatotoxicity was detected
[11]
  hepatic apoptotic indices (TUNEL), PB-treated vs control: no statistical significance found
[12]; PXRKO/CARKO mice
  Cyp2b10 protein in pooled liver microsomes (Western blot): not in the PXRKO/CARKO animals
[12]; WT and huPXR/huCAR mice
  Cyp2b10 protein in pooled liver microsomes (Western blot): induced
[12]; koCAR mice, 40 mg/kg
  Cyp2b10 expression in liver (Western blot): significantly reduced
[12]; wild-type and huCAR mice, 40 mg/kg
  Cyp2b10 expression (Western blot and PROD activity, liver): induced Cyp2b10 expression both in the wild-type and in huCAR mice

## CO[C@H]1/C=C/O[C@@]2(C)Oc3c(C)c(O)c4c(O)c(c(/C=N/N5CCN(C)CC5)c(O)c4c3C2=O)NC(=O)/C(C)=C\C=C\[C@H](C)[C@H](O)[C@@H](C)[C@@H](O)[C@@H](C)[C@H](OC(C)=O)[C@@H]1C [rifampicin]
[13]
  effect of rifampicin pre-treatment on midazolam pharmacokinetics: no significant effect was observed
[6]; wild-type or huPXR mice, rifampicin
  induction of Cyp2b10 activity: did not induce
[12]; mouse, in vivo
  induction of Cyp2b10 expression: did not induce
  induction of Cyp2b10 expression and PROD activity: only in the huPXR.1 mouse, but not in the wild type or in the huPXR mouse
[12]; mouse, in vivo, ip
  induction of Cyp2b10 protein (Western blot): not markedly induced
